Test results published in US8343951B2, “Volatile sulfide production inhibitor and method for inhibiting the production of volatile sulfide using the inhibitor” (Kabushiki Kaisha Hayashibara Seibutsu Kagaku Kenkyujo, priority 2006, dated 2013).

What was measured:
[1] = Hydrogen sulfide production from heated mackerel meat homogenate (headspace detecting tube); conditions: for Produced Volatile sulfide: hydrogen sulfide in headspace; for Inhibiting rate of volatile sulfide production: hydrogen sulfide, relative to control
Method: AA-2G (reagent grade, commercialized by Hayashibara Biochemical Laboratories, Inc.) was dissolved in distilled water to give a solution of a concentration of 10%. A certain amount of the solution and 5 ml of 500 mM phosphate buffer (pH 7.0) were put into measuring flask and filled up to 50 ml to give the test solutions containing AA-2G at the twofold concentration described in Table 1. Also the test solutions containing ascorbic acid were prepared in the same way except for using ascorbic acid (guaranteed regent) in place of AA-2G. Five ml of 500 mM phosphate buffer (pH 7.0) was filled up to 50 ml with distilled water to give control solution. Edible part of commercial mackerel fillet without bone and skin was chopped with trio blender and homogeneously stirred to make minced mackerel. Forty-five grams of the minced mackerel was put into a beaker and added with 45 g of the test solution or control solution to give the samples at the concentration of AA-2G or ascorbic acid described in Table 1. The samples were treated with homogenizer (produced by IKA Works Inc.) at ice-chilled temperature to give the homogenates as the test samples. PH of the homogenates is from 6.21 to 6.38. Ten grams of the above samples were put into 20 ml-vials and sealed with butyl rubber cap and aluminum seal. They were heated in boiled water bath for 15 minutes and cooled in running cool water. After cooled, they were heated on heating block (80° C.) for 10 minutes and the solidified samples were broken with vortex mixer. The amounts of hydrogen sulfide in the headspace gas were measured by hydrogen sulfide detecting tube ([…] No. 4LT, produced by GL Sciences Inc.). Also the inhibiting rate (%) of hydrogen sulfide production were shown in Table 1, which were obtained by subtracting the percentage amounts of hydrogen sulfide produced from 1 g of mackerel meats added with test solutions relative to the amount of hydrogen sulfide produced from 1 g of mackerel meat added with control solution from 100 to obtain.

[2] = Dimethyl-sulfide and dimethyl-disulfide production from heated milk (headspace gas chromatography); conditions: for Produced Dimethyl-disulfide / Produced Dimethyl-sulfide: milk heated 130° C. one minute; for production of volatile sulfides (dimethyl-sulfide and dimethyl-disulfide) from the test solutions / Produced Volatile sulfide: milk; for Inhibiting rate of volatile sulfide production: relative to control milk; for Produced Volatile sulfide: sum of dimethyl-sulfide and dimethyl-disulfide
Method: AA-2G (reagent grade, commercialized by Hayashibara Biochemical Laboratories, Inc.) was added in commercial milk to give the concentrations described in Table 2 to make the test solutions. Test solutions containing ascorbic acid were prepared in the same way except for using ascorbic acid (guaranteed regent) in place of AA-2G. The commercial milk was used plain as control. Sensory test of the solutions was performed by 11 panelists to evaluate the taste of each test solution added with AA-2G or ascorbic acid as being different (D) from control or as being the same (S) as control. As a result, eight or more of the 11 panelists gave a same evaluation to each test solution.
One ml of the above samples were put into 20 ml-vials and sealed with butyl rubber cap and aluminum seal. After heated at 130° C. for one minute, the amounts of dimethyl-sulfide and dimethyl-disulfide in the headspace were measured by gas chromatography in conventional way. The sums of them were shown as the amounts of volatile sulfide in Table 2. Also the inhibiting rates (%) of volatile sulfide production were shown in Table 2, which were obtained by subtracting the percentage amounts of volatile sulfide produced from ml of the test solutions relative to the amount of volatile sulfide produced from 1 ml of control (milk) from 100 to obtain.

O=C1O[C@H]([C@@H](O)CO)C(O)=C1O [Ascorbic acid, L-ascorbic acid, reference compound]
hydrogen sulfide production from homogenate of mackerel meat ([1]; concentration of 0.005% or less): equal to control
hydrogen sulfide production from homogenate of mackerel meat ([1]; concentration of 0.01% or more): enhanced
Produced Volatile sulfide ([1]; additive 0.0001% in sample): 44.1 μg/g-mackerel
Produced Volatile sulfide ([1]; additive 0.0005% in sample): 43.4 μg/g-mackerel
Produced Volatile sulfide ([1]; additive 0.001% in sample): 43.6 μg/g-mackerel
Produced Volatile sulfide ([1]; additive 0.005% in sample): 42.9 μg/g-mackerel
Produced Volatile sulfide ([1]; additive 0.01% in sample): 71.7 μg/g-mackerel
Produced Volatile sulfide ([1]; additive 0.025% in sample): 133.9 μg/g-mackerel
Produced Volatile sulfide ([1]; additive 0.05% in sample): 139.3 μg/g-mackerel
Produced Volatile sulfide ([1]; additive 0.1% in sample): 207.1 μg/g-mackerel
Produced Volatile sulfide ([1]; additive 0.5% in sample): 257.4 μg/g-mackerel
Produced Volatile sulfide ([1]; additive 1.0% in sample): 287.8 μg/g-mackerel
Inhibiting rate of volatile sulfide production ([1]; additive 0.0001% in sample): −2.1%
Inhibiting rate of volatile sulfide production ([1]; additive 0.0005% in sample): −0.5%
Inhibiting rate of volatile sulfide production ([1]; additive 0.001% in sample): −0.9%
Inhibiting rate of volatile sulfide production ([1]; additive 0.005% in sample): 0.7%
Inhibiting rate of volatile sulfide production ([1]; additive 0.01% in sample): −66.0%
Inhibiting rate of volatile sulfide production ([1]; additive 0.025% in sample): −210.0%
Inhibiting rate of volatile sulfide production ([1]; additive 0.05% in sample): −222.5%
Inhibiting rate of volatile sulfide production ([1]; additive 0.1% in sample): −379.4%
Inhibiting rate of volatile sulfide production ([1]; additive 0.5% in sample): −495.8%
Produced Dimethyl-disulfide ([2]; additive 0.0001% in sample): 0.56 μg/ml-milk
Produced Dimethyl-sulfide ([2]; additive 0.0001% in sample): 1.32 μg/ml-milk
Produced Dimethyl-disulfide ([2]; additive 0.0005% in sample): 0.54 μg/ml-milk
Produced Dimethyl-sulfide ([2]; additive 0.0005% in sample): 1.41 μg/ml-milk
Produced Dimethyl-disulfide ([2]; additive 0.001% in sample): 0.51 μg/ml-milk
Produced Dimethyl-sulfide ([2]; additive 0.001% in sample): 1.28 μg/ml-milk
Produced Dimethyl-disulfide ([2]; additive 0.005% in sample): 0.24 μg/ml-milk
Produced Dimethyl-sulfide ([2]; additive 0.005% in sample): 0.71 μg/ml-milk
Produced Dimethyl-disulfide ([2]; additive 0.01% in sample): 0.21 μg/ml-milk
Produced Dimethyl-sulfide ([2]; additive 0.01% in sample): 0.45 μg/ml-milk
Produced Dimethyl-disulfide ([2]; additive 0.05% in sample): 0.18 μg/ml-milk
Produced Dimethyl-sulfide ([2]; additive 0.05% in sample): 0.54 μg/ml-milk
Produced Dimethyl-disulfide ([2]; additive 0.1% in sample): 0.27 μg/ml-milk
Produced Dimethyl-sulfide ([2]; additive 0.1% in sample): 0.61 μg/ml-milk
Produced Dimethyl-disulfide ([2]; additive 0.5% in sample): 0.31 μg/ml-milk
Produced Dimethyl-sulfide ([2]; additive 0.5% in sample): 0.74 μg/ml-milk
Produced Dimethyl-disulfide ([2]; additive 2.5% in sample): 0.38 μg/ml-milk
Produced Dimethyl-sulfide ([2]; additive 2.5% in sample): 1.07 μg/ml-milk
production of volatile sulfides (dimethyl-sulfide and dimethyl-disulfide) from the test solutions ([2]; concentration of 0.001% or less): equal to control
production of volatile sulfides (dimethyl-sulfide and dimethyl-disulfide) from the test solutions ([2]; concentration of 0.005%): inhibited
Inhibiting rate of volatile sulfide production ([2]; additive 0.0001% in sample): 0.5%
Inhibiting rate of volatile sulfide production ([2]; additive 0.0005% in sample): −3.2%
Inhibiting rate of volatile sulfide production ([2]; additive 0.001% in sample): 5.3%
Inhibiting rate of volatile sulfide production ([2]; additive 0.005% in sample): 49.7%
Inhibiting rate of volatile sulfide production ([2]; additive 0.01% in sample): 65.1%
Inhibiting rate of volatile sulfide production ([2]; additive 0.05% in sample): 61.9%
Inhibiting rate of volatile sulfide production ([2]; additive 0.1% in sample): 53.4%
Inhibiting rate of volatile sulfide production ([2]; additive 0.5% in sample): 44.4%
Inhibiting rate of volatile sulfide production ([2]; additive 2.5% in sample): 23.3%
Produced Volatile sulfide ([2]; additive 0.0001% in sample): 1.88 µg/mL
Produced Volatile sulfide ([2]; additive 0.0005% in sample): 1.95 µg/mL
Produced Volatile sulfide ([2]; additive 0.001% in sample): 1.79 µg/mL
Produced Volatile sulfide ([2]; additive 0.005% in sample): 0.95 µg/mL
Produced Volatile sulfide ([2]; additive 0.01% in sample): 0.66 µg/mL
Produced Volatile sulfide ([2]; additive 0.05% in sample): 0.72 µg/mL
Produced Volatile sulfide ([2]; additive 0.1% in sample): 0.88 µg/mL
Produced Volatile sulfide ([2]; additive 0.5% in sample): 1.05 µg/mL
Produced Volatile sulfide ([2]; additive 2.5% in sample): 1.45 µg/mL
